Assay results published in PubChem BioAssay (NCI).
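48-hour exposure; five concentrations; linearly interpolated endpoints. Definition used: TGI = concentration required for complete inhibition of growth.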

Columns and labels:
Assay in all cases: NCI tumour cell line growth inhibition, 48 h
[1] = tested on: IGROV1 ovarian
[2] = tested on: EKVX NSCLC
[3] = tested on: OVCAR-8 ovarian
[4] = tested on: HCT-15 colon
[5] = tested on: SN12C renal
[6] = tested on: PC-3 prostate
[7] = tested on: 786-0 renal
[8] = tested on: T-47D breast
[9] = tested on: HOP-92 NSCLC
[10] = tested on: OVCAR-5 ovarian

COc1ccc(/C=N/N=C(N)N)c(C(=O)O)c1OC
TGI [1]: > 10 µM
TGI [2]: > 100 µM
TGI [3]: > 100 µM
TGI [4]: > 100 µM
TGI [5]: > 100 µM

O=C(NC12CC3CC(CC(C3)C1)C2)n1cnc2cncnc21
TGI [6]: 98.7 µM
TGI [7]: > 100 µM
TGI [8]: > 100 µM
TGI [1]: 98 µM
TGI [9]: > 100 µM
TGI [2]: > 100 µM
TGI [3]: > 100 µM
TGI [4]: > 100 µM
TGI [10]: > 100 µM
TGI [5]: > 100 µM

C=C1CN(C(=O)c2cc3cc(OC)c(OC)c(OC)c3[nH]2)c2cc([N+](=O)[O-])ccc21
TGI [6]: > 100 µM
TGI [7]: > 100 µM
TGI [8]: > 100 µM
TGI [1]: > 100 µM
TGI [9]: > 100 µM
TGI [2]: > 100 µM
TGI [3]: > 100 µM
TGI [4]: > 100 µM
TGI [10]: > 100 µM
TGI [5]: > 100 µM

O=c1[nH]/c(=C/c2cccs2)c(=O)[nH]/c1=C/c1ccc(OCc2ccccc2)cn1
TGI [6]: > 44.4 µM
TGI [7]: 25.6 µM
TGI [1]: > 100 µM
TGI [2]: > 100 µM
TGI [3]: 65.4 µM
TGI [4]: 28.8 µM
TGI [10]: > 69.5 µM
TGI [5]: > 100 µM

CCCCOP(=O)(OCCCC)C(NS(=O)(=O)c1ccccc1)(C(=O)OCC)C(F)(F)F (stereo not drawn)
TGI [6]: > 100 µM
TGI [7]: 88.1 µM
TGI [8]: > 100 µM
TGI [1]: 65.6 µM
TGI [9]: 71.8 µM
TGI [2]: > 100 µM
TGI [3]: > 100 µM
TGI [4]: > 100 µM
TGI [10]: > 100 µM
TGI [5]: 90.4 µM

Cc1ccc(N=c2oc3c(ccc4ccccc43)nc2Nc2ccc(C)cc2)cc1
TGI [6]: > 100 µM
TGI [7]: > 100 µM
TGI [8]: > 100 µM
TGI [1]: > 100 µM
TGI [9]: > 100 µM
TGI [2]: > 100 µM
TGI [3]: > 100 µM
TGI [4]: > 100 µM
TGI [10]: > 100 µM
TGI [5]: > 100 µM
